Data published in patent US8648116B2, “Derivatives of N-(arylamino) sulfonamides including polymorphs as inhibitors of MEK as well as compositions, methods of use and methods for preparing the same” (Ardea Biosciences, Inc., priority 2005, dated 2014).
Like-named read-outs stand apart in the source and are kept apart here. Marks after values point to notes of the source that are not given here.

Assays:
[1] = human, in vivo
[2] = test system: gastric carcinoma Hs746t cells; experiment: Cell proliferation assay (CellTiterGlo, 48 hours); type: cell-based, human; details: 48 hours treatment
Description: Human gastric carcinoma Hs746t cells were obtained from ATCC (Manassas, Va.). […] For cell proliferation experiments, cells were plated in white 96-well plates with clear bases at 3000 cells/100 μl/well.

[3] = test system: gastric adenocarcinoma AGS cells; experiment: Cell proliferation assay (CellTiterGlo, 3 days and 6 days); type: cell-based, human; details: 3 days and 6 days exposure
Description: Human gastric adenocarcinoma AGS cells were obtained from ATCC (Manassas, Va.). […] For cell proliferation experiments, cells were plated in white 96-well plates with clear bases at 3000 cells/100 μl/well. […] The ATP level for each dose was determined in triplicate using independent wells.

[4] = Pharmacokinetics in cancer patients following multiple doses; details: 6 mg
[5] = test system: select human cancer cells; experiment: Growth inhibition in proliferation assays, summary over cell lines; type: cell-based
HT29 colon cancer tumors = experiment: Anti-tumor xenograft activity, TGI (Example 94); type: in vivo, nu/nu mice; details: 25 mg/kg QD oral, 14 days
Description: (§1) Human tumors were implanted in nu/nu mice. Compound A was administered orally for 14 days once tumors were approximately 100 mm^3 in size. Tumor growth inhibition (TGI) was determined after 14 days of treatment as the reduction in the size of tumors in treated groups versus vehicle controls. The time to endpoint (TTE) was calculated as the time for the tumor to reach the specified endpoint volume or the last day of the study, whichever came first. Treatment outcome was determined from percent tumor growth delay (% TGD), defined as the percent increase in median TTE of treated versus vehicle-treated control mice. Animals were also monitored for regression responses. Levels of pERK in tumors and brain were determined by Western blots and correlated with plasma levels of Compound A for the pharmacodynamic/pharmacokinetic study. A number of tumor models were evaluated with different doses and dosing regimens. […] The effect of different dosing regimens was evaluated in A375 xenografts.
Female nu/nu mice were implanted with A375 Melanoma, Colo205 Colon Tumor, A431 Epidermoid Tumor or HT-29 Colon Tumor cells, which were allowed to grow to 100-200 mm^3. […]
Tumor Growth Inhibition for the groups treated with 25 mg/kg Compound A were calculated for the indicated tumor xenografts. Tumor Growth Inhibition was measured at the end of once daily dosing for 14 days and calculated according to: […]

A375 melanoma tumors = experiment: Anti-tumor xenograft activity, TGI and TGD (Example 94); type: in vivo, nu/nu mice
Description: as §1
Female nu/nu mice were implanted with A375 Melanoma, Colo205 Colon Tumor, A431 Epidermoid Tumor or HT-29 Colon Tumor cells, which were allowed to grow to 100-200 mm^3. Compound A or vehicle was administered orally (25 mg/kg, 50 mg/kg or 100 mg/kg), once a day, for 14 days.
Tumor Growth Inhibition for the groups treated with 25 mg/kg Compound A were calculated for the indicated tumor xenografts. Tumor Growth Inhibition was measured at the end of once daily dosing for 14 days and calculated according to:
Female nu/nu mice were implanted with A375 tumor cells, which were allowed to grow to 100-200 mm^3. Compound. […] Tumor Growth Inhibition was measured at the end of once daily dosing for 14 days and calculated according to: […]

pERK in Colo205 tumors = experiment: MEK inhibition (pERK, Western blot) against plasma concentration, tumor; type: in vivo, nu/nu mice
Description: as §1
Female nu/nu mice implanted with Colo205 tumor cells were given a single dose of vehicle or Compound A at 2.5, 5, 10, or 25 mg/kg. Compound levels were determined in plasma samples and pERK levels were determined in tumor and brain samples collected at 2, 6, 12, and 24 hr post-dose. […]

[6] = Pharmacokinetic parameters in Balb/c mice (Example 94D); type: in vivo
Description: Pharmacokinetic parameters were obtained from dosing Balb/c mice with 25 mg/kg Compound A and extrapolating values for the lower dose groups and shown in the table below.

[7] = test system: Complete Freund's Adjuvant induced arthritis; experiment: Rat adjuvant arthritis inflammation assay; type: in vivo, rats; details: 20 mg/kg orally for 5 days
Description: In the rat adjuvant induced arthritis model, Complete Freund's Adjuvant (CFA) is injected into the right hind paw of rats to induce pathologies similar to rheumatoid arthritis in humans. Compound A was administered orally for 5 consecutive days at 2, 6, and 20 mg/kg. Dexamethasone at 5 m g/kg was also administered orally for 5 days. Enbrel at 10 mg/kg was administered by subcutaneous injection on days 1 and 4. CFA was injected into the right hind paw one hour after the first dose on day 1. […] Polyarthritis was scored as the presence of swelling in front paws, tail, nose or ear.

A431 epidermoid cells = experiment: Anchorage-independent growth inhibition (MTS, 7 days, non-binding plates); type: cell-based; details: Homo sapiens, A-431, 168 h, BRAF Normal, read-out: Anchorage-Independent GI50 (nM ± sd)
[8] = Concentration-time profiles after a single dose of capsules; design: species or system human cancer patients; details: human, in vivo, oral, capsules of example 95A
[9] = 2.5 mg/kg, extrapolated from 25 mg/kg in Balb/c mice
[10] = 5 mg/kg, extrapolated from 25 mg/kg in Balb/c mice
[11] = 10 mg/kg, extrapolated from 25 mg/kg in Balb/c mice

Compound: COc1cc(F)c(F)c(Nc2ccc(I)cc2F)c1NS(=O)(=O)C1(C[C@H](O)CO)CC1
- half-lives [1]: 13 to 15 h
- proliferation of Hs746t cells [2]: inhibits the proliferation
- proliferation of AGS cell line [3]: inhibits the proliferation
- Rac AUCτ (accumulation index) [4]: 2.07
- GI50 ([5]; mean over A375, Colo205, HT29 and A431, 48 hr, ATP content, read-out: growth inhibition, mean potency (GI50)): 79 nM
- GI50 ([5]; select human cancer cells, range, read-out: GI50 values, anchorage dependent proliferation assays): 70 to 89 nM
- GI50 ([5]; select human cancer cells, read-out: GI50, anchorage dependent proliferation assays): 51 nM
- GI50 ([5]; select human cancer cells, read-out: GI50, anchorage independent proliferation assays): 22 nM

Compound: COc1cc(F)c(F)c(Nc2ccc(I)cc2F)c1NS(=O)(=O)C1(C[C@H](O)CO)CC1 [Compound A]
- % TGI (HT29 colon cancer tumors): 56%
- % TGI (A375 melanoma tumors; A375 Melanoma xenograft, 25 mg/kg QD oral, 14 days, range from 2 separate studies): 52-72** %
- % TGD, significance (A375 melanoma tumors; A375 melanoma tumors, 25 or 50 mg/kg once daily (QD)): statistically significant
- % TGI (A375 melanoma tumors; A375 xenografts, 12.5 mg/kg BID): 79.5%
- % TGI (A375 melanoma tumors; A375 xenografts, 25 mg/kg BID): 110.1%
- % TGD (A375 melanoma tumors; A375 xenografts, 25 mg/kg QD): 143%
- % TGI (A375 melanoma tumors; A375 xenografts, 25 mg/kg QD): 51.7%
- % TGD (A375 melanoma tumors; A375 xenografts, 50 mg/kg QD): 233%
- % TGI (A375 melanoma tumors; A375 xenografts, 50 mg/kg QD): 69.9%
- % TGD (A375 melanoma tumors; A375 xenografts, 100 mg/kg orally once every two days): 91%
- pERK formation in tumors (pERK in Colo205 tumors; Colo205 xenografts, pharmacodynamic/pharmacokinetic study): inhibition of pERK formation
- EC50 (pERK in Colo205 tumors; Mus musculus, COLO 205, plasma concentration, Colo205-bearing nu/nu mice, single dose 2.5-25 mg/kg, non-linear regression): 73 nM
- AUC [6, 9]: 5500 ng·h/mL
- Cmax [6, 9]: 990 ng/mL
- Cmin [6, 9]: 3 ng/mL
- AUC [6, 10]: 11000 ng·h/mL
- Cmax [6, 10]: 1970 ng/mL
- Cmin [6, 10]: 6 ng/mL
- AUC [6, 11]: 22000 ng·h/mL
- Cmax [6, 11]: 3940 ng/mL
- Cmin [6, 11]: 12 ng/mL
- Cmin ([6]; 25 mg/kg, Balb/c mice): 29 ng/mL
- AUC ([6]; mouse, in vivo, oral, 25 mg/kg, Balb/c mice, read-out: AUC): 55000 ng·h/mL
- Cmax ([6]; mouse, in vivo, oral, 25 mg/kg, Balb/c mice, read-out: Cmax): 9850 ng/mL
- animals without front paw swelling (polyarthritis scoring) [7]: 2 of 6
- animals without swelling in the tail (polyarthritis scoring) [7]: 4 of 6
- inhibition of paw swelling ([7]; acute and delayed phases): significant reduction in swelling
- GI50 (A431 epidermoid cells): 65 ± 19 nM
- Cmax ([8]; 2 mg, 2 mg dose, Day 35): 0.202 ng/mL
- Tmax ([8]; 2 mg, 2 mg dose, Day 35): 2 h
- Tmax ([8]; 4 mg, 4 mg dose, Day 1): 1.5 h
- Cmax ([8]; 4 mg, 4 mg dose, Day 35): 0.544 ng/mL
- Tmax ([8]; 4 mg, 4 mg dose, Day 35): 1 h
- Cmax ([8]; 10 mg, 10 mg dose, Day 35): 1.57 ng/mL
- Cmax ([8]; 20 mg, 20 mg dose, Day 35): 3.28 ng/mL
- AUC ([8]; 2 mg dose, Day 35): 2.07 ng·h/mL
- AUC ([8]; 4 mg dose, Day 35): 5.12 ng·h/mL
- AUC ([8]; 10 mg dose, Day 35): 14.3 ng·h/mL
- AUC ([8]; 20 mg dose, Day 35): 29.5 ng·h/mL
